The values that follow come from PubChem BioAssay AID256 (DTP/NCI, 2004).

For this assay, the system named is CD2F1 mice, L1210 leukemia ip, survival T/C. As to the kind of experiment: NCI In Vivo Anticancer Drug Screen. Data for tumor model L1210 Leukemia (intraperitoneal) in CD2F1 (CDF1) mice. Particulars: higher = longer survival. A digest of the protocol: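 Ratio T/C, where T is the treated-group value and C the vehicle-dosed control value, from mice implanted with a transplantable tumor.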

[1] abbreviates: endpoint: mean survival time, dose: 12.5 mg/kg/injection, schedule: Q01DX009 (ip), vehicle: saline.
Setting [2] is: endpoint: mean survival time, dose: 25.0 mg/kg/injection, schedule: Q01DX009 (ip), vehicle: saline.
Where [3] appears, read: endpoint: mean survival time, dose: 100.0 mg/kg/injection, schedule: Q04DX002 (ip), vehicle: saline with Tween-80.
The mark [4] stands for this setting: endpoint: mean survival time, dose: 400.0 mg/kg/injection, schedule: Q04DX002 (ip), vehicle: saline with Tween-80.
The mark [5] stands for this setting: endpoint: mean survival time, dose: 100.0 mg/kg/injection, schedule: Q01DX001 (ip), vehicle: saline with Tween-80.
Where [6] appears, read: endpoint: mean survival time, dose: 100.0 mg/kg/injection, schedule: Q01DX009 (ip), vehicle: saline with Tween-80.
The mark [7] stands for this setting: endpoint: mean survival time, dose: 200.0 mg/kg/injection, schedule: Q01DX009 (ip), vehicle: saline with Tween-80.
Where [8] appears, read: endpoint: mean survival time, dose: 400.0 mg/kg/injection, schedule: Q01DX009 (ip), vehicle: saline with Tween-80.

Molecules are shown by their SMILES. “And” between values parts separate entries of the source, which are not always exact repeats. Equal values may be shown once. Toxic doses and inconclusive results are not listed.

Turning to `NC(N)=NNc1ccccc1`, the T/C runs as follows: (endpoint: mean survival time, dose: 6.25 mg/kg/injection, schedule: Q01DX009 (ip), vehicle: saline) 100 % of control; under setting [1], 100 % of control; under setting [2], 96 % of control.
For the compound `COc1ccc(/C=C/c2cc[n+](C)cc2)cc1`, the T/C reads like this: under setting [1], 102 % of control; under setting [2], 95 % of control.
For the compound `CCCCCCCCCOc1ccc(Cl)cc1`, the T/C by setting is: (endpoint: mean survival time, dose: 25.0 mg/kg/injection, schedule: Q04DX002 (ip), vehicle: saline with Tween-80) 95 % of control; (endpoint: mean survival time, dose: 50.0 mg/kg/injection, schedule: Q04DX002 (ip), vehicle: saline with Tween-80) 100 % of control; under setting [3], 90 % of control and 95 % of control; under setting [4], 93 % of control.
Take `O=C(O)C1CCC(CC2CCCCC2)CC1` (stereo unspecified): the T/C is 93 % of control (endpoint: mean survival time, dose: 100.0 mg/kg/injection, schedule: Q04DX003 (ip), vehicle: saline with Tween-80); 94 % of control (endpoint: mean survival time, dose: 200.0 mg/kg/injection, schedule: Q04DX003 (ip), vehicle: saline with Tween-80); 104 % of control (endpoint: mean survival time, dose: 400.0 mg/kg/injection, schedule: Q04DX003 (ip), vehicle: saline with Tween-80).
As to `CCCCN(Cc1ccccc1)CC(O)C[NH-].O=C(O)CC(=O)O.[Pt+2]` (stereo unspecified), the T/C reads like this: (endpoint: median survival time, dose: 10.0 mg/kg/injection, schedule: Q04DX003 (ip), vehicle: water) 98 % of control; (endpoint: median survival time, dose: 20.0 mg/kg/injection, schedule: Q04DX003 (ip), vehicle: water) 105 % of control; (endpoint: median survival time, dose: 27.25 mg/kg/injection, schedule: Q04DX003 (ip), vehicle: water) 101 % of control; (endpoint: median survival time, dose: 40.0 mg/kg/injection, schedule: Q04DX003 (ip), vehicle: water) 109 % of control; (endpoint: median survival time, dose: 54.5 mg/kg/injection, schedule: Q04DX003 (ip), vehicle: water) 101 % of control; (endpoint: median survival time, dose: 80.0 mg/kg/injection, schedule: Q04DX003 (ip), vehicle: water) 105 % of control. Moreover, the T/C (endpoint: median survival time, dose: 109.0 mg/kg/injection, schedule: Q04DX003 (ip), vehicle: water) was 108 % of control.
Turning to `O=C1/C(=N/Nc2ccccc2)c2cccc3cccc1c23`, the T/C reads like this: under setting [5], 97 % of control; (endpoint: mean survival time, dose: 200.0 mg/kg/injection, schedule: Q01DX001 (ip), vehicle: saline with Tween-80) 100 % of control; (endpoint: mean survival time, dose: 400.0 mg/kg/injection, schedule: Q01DX001 (ip), vehicle: saline with Tween-80) 106 % of control.
Consider `CCC1(c2ccccc2)C(=O)N(Cl)C(=O)N(Cl)C1=O`, for which the T/C reads like this: (endpoint: mean survival time, dose: 25.0 mg/kg/injection, schedule: Q01DX001 (ip), vehicle: saline with Tween-80) 101 % of control; (endpoint: mean survival time, dose: 50.0 mg/kg/injection, schedule: Q01DX001 (ip), vehicle: saline with Tween-80) 95 % of control; under setting [5], 95 % of control and 100 % of control.
On to `NC(=O)c1ncn2c(=O)n(CCCl)nnc12`, for which the T/C is 174 % of control (endpoint: median survival time, dose: 3.0 mg/kg/injection, schedule: Q01DX009 (ip), vehicle: saline); 212 % of control (endpoint: median survival time, dose: 3.12 mg/kg/injection, schedule: Q01DX009 (ip), vehicle: saline); 223 % of control (endpoint: median survival time, dose: 6.0 mg/kg/injection, schedule: Q01DX009 (ip), vehicle: saline); 184 % of control and 214 % of control and 365 % of control (endpoint: median survival time, dose: 6.25 mg/kg/injection, schedule: Q01DX009 (ip), vehicle: saline); 182 % of control (endpoint: median survival time, dose: 6.25 mg/kg/injection, schedule: Q01DX009 (ip), vehicle: suspension in saline); 352 % of control (endpoint: median survival time, dose: 12.0 mg/kg/injection, schedule: Q01DX009 (ip), vehicle: saline). Moreover, the T/C (endpoint: median survival time, dose: 12.5 mg/kg/injection, schedule: Q01DX009 (ip), vehicle: saline) was 222 % of control and 365 % of control (2×); the T/C (endpoint: median survival time, dose: 12.5 mg/kg/injection, schedule: Q01DX009 (ip), vehicle: suspension in saline) was 322 % of control; the T/C (endpoint: median survival time, dose: 25.0 mg/kg/injection, schedule: Q01DX009 (ip), vehicle: suspension in saline) was 322 % of control; the T/C (endpoint: median survival time, dose: 50.0 mg/kg/injection, schedule: Q01DX009 (ip), vehicle: suspension in saline) is 100 % of control.
For the compound `Nn1c2ccccc2c2ccccc21`, the T/C (endpoint: mean survival time, dose: 75.0 mg/kg/injection, schedule: Q01DX001 (ip), vehicle: saline) is 98 % of control and the T/C (endpoint: mean survival time, dose: 150.0 mg/kg/injection, schedule: Q01DX001 (ip), vehicle: saline) was 106 % of control.
On to `c1ccc(Cc2ccccn2)cc1`, for which the T/C was 93 % of control (endpoint: mean survival time, dose: 100.0 mg/kg/injection, schedule: Q04DX003 (ip), vehicle: water); 101 % of control (endpoint: mean survival time, dose: 200.0 mg/kg/injection, schedule: Q04DX003 (ip), vehicle: water); 104 % of control (endpoint: mean survival time, dose: 400.0 mg/kg/injection, schedule: Q04DX003 (ip), vehicle: water).
For `CC(NC(=O)OCc1ccccc1)C(=O)NCCC(=O)OCc1ccccc1` (stereo unspecified), the T/C was 93 % of control under setting [6], 95 % of control under setting [7] and 90 % of control under setting [8].
The matching figures for `O=C(N/N=C/c1cccc2ccccc12)C(O)c1ccccc1` (stereo unspecified): 104 % of control, 101 % of control and 98 % of control.
For `CCCCOC(=O)COc1ccc(F)cc1`, the T/C runs as follows: under setting [3], 94 % of control; (endpoint: mean survival time, dose: 200.0 mg/kg/injection, schedule: Q04DX002 (ip), vehicle: saline with Tween-80) 94 % of control; under setting [4], 94 % of control.
Take `OCC1OC(n2cnc3c(SSc4ncnc5c4ncn5C4CC(O)C(CO)O4)ncnc32)CC1O` (stereo unspecified): under “endpoint: mean survival time, dose: 178.0 mg/kg/injection, schedule: Q01DX001 (ip), vehicle: saline”, the T/C was 114 % of control.
With `O=C(CBr)c1cc(-c2ccc(Cl)cc2)nc2c(Cl)cc(Cl)cc12`, the T/C (endpoint: mean survival time, dose: 100.0 mg/kg/injection, schedule: Q01DX001 (ip), vehicle: saline) is 91 % of control; the T/C (endpoint: mean survival time, dose: 200.0 mg/kg/injection, schedule: Q01DX001 (ip), vehicle: saline) is 97 % of control; the T/C (endpoint: mean survival time, dose: 400.0 mg/kg/injection, schedule: Q01DX001 (ip), vehicle: saline) was 103 % of control.
As to `O=[N+]([O-])c1cc(S(=O)(=O)c2ccc(F)c([N+](=O)[O-])c2)ccc1F`, the T/C (endpoint: mean survival time, dose: 6.25 mg/kg/injection, schedule: Q01DX009 (ip), vehicle: Klucel (hydroxypropylcellulose) (HPC)) is 98 % of control; the T/C (endpoint: mean survival time, dose: 12.5 mg/kg/injection, schedule: Q01DX009 (ip), vehicle: Klucel (hydroxypropylcellulose) (HPC)) was 98 % of control; the T/C (endpoint: mean survival time, dose: 25.0 mg/kg/injection, schedule: Q01DX009 (ip), vehicle: Klucel (hydroxypropylcellulose) (HPC)) was 98 % of control.
Turning to `O=C1Nc2ccccc2/C1=N/N=P(c1ccccc1)(c1ccccc1)c1ccccc1`, the T/C is 100 % of control (endpoint: median survival time, dose: 50.0 mg/kg/injection, schedule: Q04DX002 (ip), vehicle: saline with Tween-80); 110 % of control (endpoint: median survival time, dose: 100.0 mg/kg/injection, schedule: Q04DX002 (ip), vehicle: saline with Tween-80); 100 % of control (endpoint: median survival time, dose: 200.0 mg/kg/injection, schedule: Q04DX002 (ip), vehicle: saline with Tween-80); 100 % of control (endpoint: median survival time, dose: 400.0 mg/kg/injection, schedule: Q04DX002 (ip), vehicle: saline with Tween-80).
With `CCOC(=O)Nc1cc(NCCCCc2ccccc2)c2[nH]cnc2n1`, the T/C by setting is: (endpoint: mean survival time, dose: 100.0 mg/kg/injection, schedule: Q01DX001 (ip), vehicle: Klucel (hydroxypropylcellulose) (HPC)) 95 % of control; (endpoint: mean survival time, dose: 200.0 mg/kg/injection, schedule: Q01DX001 (ip), vehicle: Klucel (hydroxypropylcellulose) (HPC)) 93 % of control; (endpoint: mean survival time, dose: 400.0 mg/kg/injection, schedule: Q01DX001 (ip), vehicle: Klucel (hydroxypropylcellulose) (HPC)) 102 % of control.
Consider `Cc1noc2nc(-c3ccccc3)cc(N3CCN(C)CC3)c12`, for which the T/C was 100 % of control (endpoint: median survival time, dose: 12.5 mg/kg/injection, schedule: Q01DX005 (ip), vehicle: other); 103 % of control (endpoint: median survival time, dose: 25.0 mg/kg/injection, schedule: Q01DX005 (ip), vehicle: other); 98 % of control (endpoint: median survival time, dose: 50.0 mg/kg/injection, schedule: Q01DX005 (ip), vehicle: other); 97 % of control (endpoint: median survival time, dose: 100.0 mg/kg/injection, schedule: Q01DX005 (ip), vehicle: other); 98 % of control (endpoint: median survival time, dose: 200.0 mg/kg/injection, schedule: Q01DX005 (ip), vehicle: other).
For the compound `O=S(=O)(O)SCc1ccccc1CSS(=O)(=O)O`, the T/C is 96 % of control (endpoint: mean survival time, dose: 100.0 mg/kg/injection, schedule: Q04DX003 (ip), vehicle: saline); 101 % of control (endpoint: mean survival time, dose: 200.0 mg/kg/injection, schedule: Q04DX003 (ip), vehicle: saline); 108 % of control (endpoint: mean survival time, dose: 400.0 mg/kg/injection, schedule: Q04DX003 (ip), vehicle: saline).
